Data from PubChem BioAssay (NCI).
Where “and” joins values, the source holds several entries; their conditions need not be identical. Identical values can stand only once.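 How tested: cells in 96-well plates exposed to compound for 48 hours at five concentrations. Abbreviation: GI50, concentration required for 50% inhibition of growth. The concentration for full growth arrest is given as TGI.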

How the values were obtained:
Assay in all cases: NCI-60 cell line screen, 48 h
786-0 renal = tested on: 786-0 renal
A498 renal = tested on: A498 renal
A549 NSCLC = tested on: A549 NSCLC
ACHN renal = tested on: ACHN renal
BT-549 breast = tested on: BT-549 breast
CAKI-1 renal = tested on: CAKI-1 renal
CCRF-CEM leukemia = tested on: CCRF-CEM leukemia
COLO 205 colon = tested on: COLO 205 colon
DLD-1 colon = tested on: DLD-1 colon
DMS 273 small cell lung = tested on: DMS 273 small cell lung
DU-145 prostate = tested on: DU-145 prostate
EKVX NSCLC = tested on: EKVX NSCLC
HCC-2998 colon = tested on: HCC-2998 colon
HCT-116 colon = tested on: HCT-116 colon
HCT-15 colon = tested on: HCT-15 colon
HL-60(TB) leukemia = tested on: HL-60(TB) leukemia
HOP-18 NSCLC = tested on: HOP-18 NSCLC
HOP-62 NSCLC = tested on: HOP-62 NSCLC
HOP-92 NSCLC = tested on: HOP-92 NSCLC
HS 578T breast = tested on: HS 578T breast
HT29 colon = tested on: HT29 colon
IGROV1 ovarian = tested on: IGROV1 ovarian
K-562 leukemia = tested on: K-562 leukemia
KM12 colon = tested on: KM12 colon
KM20L2 colon = tested on: KM20L2 colon
LOX IMVI melanoma = tested on: LOX IMVI melanoma
LXFL 529 NSCLC = tested on: LXFL 529 NSCLC
M14 melanoma = tested on: M14 melanoma
M19-MEL melanoma = tested on: M19-MEL melanoma
MALME-3M melanoma = tested on: MALME-3M melanoma
MCF7 breast = tested on: MCF7 breast
MDA-MB-231 breast = tested on: MDA-MB-231 breast
MDA-N = tested on: MDA-N
MOLT-4 leukemia = tested on: MOLT-4 leukemia
NCI-H226 lung = tested on: NCI-H226 lung
NCI-H23 lung = tested on: NCI-H23 lung
NCI-H460 lung = tested on: NCI-H460 lung
NCI-H522 lung = tested on: NCI-H522 lung
OVCAR-3 ovarian = tested on: OVCAR-3 ovarian
OVCAR-4 ovarian = tested on: OVCAR-4 ovarian
OVCAR-5 ovarian = tested on: OVCAR-5 ovarian
OVCAR-8 ovarian = tested on: OVCAR-8 ovarian
PC-3 prostate = tested on: PC-3 prostate
RPMI-8226 leukemia = tested on: RPMI-8226 leukemia
RXF 393 renal = tested on: RXF 393 renal
RXF-631 renal = tested on: RXF-631 renal
SF-268 CNS = tested on: SF-268 CNS
SF-295 CNS = tested on: SF-295 CNS
SF-539 CNS = tested on: SF-539 CNS
SK-MEL-2 melanoma = tested on: SK-MEL-2 melanoma
SK-MEL-28 melanoma = tested on: SK-MEL-28 melanoma
SK-MEL-5 melanoma = tested on: SK-MEL-5 melanoma
SK-OV-3 ovarian = tested on: SK-OV-3 ovarian
SN12C renal = tested on: SN12C renal
SNB-19 CNS = tested on: SNB-19 CNS
SNB-75 CNS = tested on: SNB-75 CNS
SNB-78 CNS = tested on: SNB-78 CNS
SW-620 colon = tested on: SW-620 colon
T-47D breast = tested on: T-47D breast
TK-10 renal = tested on: TK-10 renal
U251 CNS = tested on: U251 CNS
UACC-257 melanoma = tested on: UACC-257 melanoma
UACC-62 melanoma = tested on: UACC-62 melanoma
UO-31 renal = tested on: UO-31 renal
XF 498 CNS = tested on: XF 498 CNS

## N=S(c1ccccc1[N+](=O)[O-])c1ccccc1[N+](=O)[O-]
786-0 renal
  TGI: 3.93 µM and 4.67 µM
A498 renal
  TGI: 43.5 µM and 32.2 µM
A549 NSCLC
  TGI: 9.72 µM and 15.6 µM
ACHN renal
  TGI: 3.22 µM and 3.61 µM
BT-549 breast
  TGI: 3.13 µM
CAKI-1 renal
  TGI: 4.19 µM and 12 µM
CCRF-CEM leukemia
  TGI: 7.79 µM and 2.7 µM
COLO 205 colon
  TGI: 2.77 µM and 4.12 µM
DLD-1 colon
  GI50: 1.81 µM and 0.636 µM
  TGI: 4.15 µM and 2.08 µM
DMS 273 small cell lung
  TGI: 5.15 µM and 7.87 µM
DU-145 prostate
  TGI: 7.38 µM
EKVX NSCLC
  TGI: 11 µM and 20.8 µM
HCC-2998 colon
  TGI: 7.11 µM and 9.66 µM
HCT-116 colon
  TGI: 3.28 µM and 3.58 µM
HCT-15 colon
  TGI: 2.06 µM and 3.72 µM
HL-60(TB) leukemia
  TGI: 2.57 µM and 3.39 µM
HOP-18 NSCLC
  TGI: 19.5 µM and 15.8 µM
HOP-62 NSCLC
  TGI: 8.51 µM and 10.8 µM
HOP-92 NSCLC
  TGI: 4.02 µM and 4.39 µM
HS 578T breast
  TGI: > 100 µM
HT29 colon
  GI50: 1.54 µM and 3.83 µM
  TGI: 5.16 µM and 8.69 µM
IGROV1 ovarian
  TGI: 4.49 µM and 6.5 µM
K-562 leukemia
  GI50: 2.19 µM
  TGI: 7.29 µM
KM12 colon
  TGI: 7.31 µM and 16.7 µM
KM20L2 colon
  GI50: 5.21 µM and 12.9 µM
  TGI: 11.2 µM and 27.4 µM
LOX IMVI melanoma
  TGI: 1.68 µM and 2.58 µM
LXFL 529 NSCLC
  TGI: 7.83 µM and 5.92 µM
M14 melanoma
  TGI: 8.88 µM and 16.4 µM
M19-MEL melanoma
  TGI: 12.3 µM and 6.84 µM
MALME-3M melanoma
  TGI: 6.1 µM and 7.33 µM
MCF7 breast
  TGI: 0.266 µM
MDA-MB-231 breast
  TGI: 3.4 µM
MDA-N
  TGI: 2.83 µM
MOLT-4 leukemia
  GI50: 3.93 µM
  TGI: 4.7 µM and 20.4 µM
NCI-H226 lung
  GI50: 12.6 µM
  TGI: 12.3 µM and 30.1 µM
NCI-H23 lung
  TGI: 6.77 µM and 11 µM
NCI-H460 lung
  GI50: 7.83 µM and 14.4 µM
  TGI: 21.5 µM and 32 µM
NCI-H522 lung
  TGI: 1.2 µM and 1.1 µM
OVCAR-3 ovarian
  TGI: 1.63 µM and 3.05 µM
OVCAR-4 ovarian
  TGI: 2.05 µM and 1.11 µM
OVCAR-5 ovarian
  TGI: 7.69 µM and 11.8 µM
OVCAR-8 ovarian
  TGI: 5.4 µM and 13.1 µM
PC-3 prostate
  TGI: 2.98 µM
RPMI-8226 leukemia
  GI50: 3.93 µM
  TGI: 4.47 µM and 18.8 µM
RXF 393 renal
  TGI: 5.6 µM and 14.4 µM
RXF-631 renal
  TGI: 3.43 µM
SF-268 CNS
  TGI: 11.9 µM and 5.94 µM
SF-295 CNS
  GI50: 2.45 µM and 5.99 µM
  TGI: 6.16 µM and 15.4 µM
SF-539 CNS
  TGI: 6.9 µM and 9.89 µM
SK-MEL-2 melanoma
  TGI: 7.97 µM and 9.86 µM
SK-MEL-28 melanoma
  TGI: 10.9 µM and 11.3 µM
SK-MEL-5 melanoma
  TGI: 3.83 µM and 8.22 µM
SK-OV-3 ovarian
  TGI: 17 µM and 15.7 µM
SN12C renal
  TGI: 2.89 µM and 3.19 µM
SNB-19 CNS
  TGI: 22.5 µM and 20.9 µM
SNB-75 CNS
  TGI: 20.5 µM and 15.6 µM
SNB-78 CNS
  TGI: 9.2 µM and 8.28 µM
SW-620 colon
  GI50: 1.14 µM and 2.47 µM
  TGI: 2.95 µM and 10 µM
T-47D breast
  TGI: 0.934 µM
TK-10 renal
  TGI: 7.42 µM and 6.53 µM
U251 CNS
  GI50: 14.5 µM and 16 µM
  TGI: 27.7 µM and 29.5 µM
UACC-257 melanoma
  TGI: 6.51 µM and 10.1 µM
UACC-62 melanoma
  TGI: 9.13 µM and 10.2 µM
UO-31 renal
  TGI: 3.94 µM and 7.44 µM
XF 498 CNS
  GI50: 4.84 µM and 2.14 µM
  TGI: 11.5 µM and 6.15 µM
